Measured values published in BindingDB's records for patent US10035761 (Revivia Pharmaceuticals, Inc., 2018).

Experiments:
[1] = target: Sodium-dependent serotonin transporter (Homo sapiens, UniProt P31645); assay: In Vitro Pharmacology Assay
Description: (§1) The monoamine transporters inhibitory activities of selected cycloalkylmethylamines of Formula (I) are reported herein. The compounds were evaluated using well established radioligand binding assays protocols (Galli, A. et al., J. Exp. Biol. 1995, 198, 2197-2212; Giros, B. et al., Trends Pharmcol. Sci. 1993, 14, 43-49; Gu, H. et al., J. Biol. Chem. 1994, 269(10), 7124-7130; Shearman, L. P. et al, Am. J. Physiol., 1998, 275(6 Pt 1), C1621-1629; Wolf, W. A. et al., J. Biol. Chem. 1992, 267(29), 20820-20825). The human recombinant transporter proteins dopamine (DAT), norepinephrine (NET) and serotonin (SERT) were selected for the in vitro assays. The radioligand binding assays were carried out at 11 different test concentrations 0.1 nM to 1 μM.

[2] = target: Sodium-dependent noradrenaline transporter (Homo sapiens, UniProt P23975); assay: In Vitro Pharmacology Assay
Sodium-dependent noradrenaline transporter, sequence (P23975 whole entry): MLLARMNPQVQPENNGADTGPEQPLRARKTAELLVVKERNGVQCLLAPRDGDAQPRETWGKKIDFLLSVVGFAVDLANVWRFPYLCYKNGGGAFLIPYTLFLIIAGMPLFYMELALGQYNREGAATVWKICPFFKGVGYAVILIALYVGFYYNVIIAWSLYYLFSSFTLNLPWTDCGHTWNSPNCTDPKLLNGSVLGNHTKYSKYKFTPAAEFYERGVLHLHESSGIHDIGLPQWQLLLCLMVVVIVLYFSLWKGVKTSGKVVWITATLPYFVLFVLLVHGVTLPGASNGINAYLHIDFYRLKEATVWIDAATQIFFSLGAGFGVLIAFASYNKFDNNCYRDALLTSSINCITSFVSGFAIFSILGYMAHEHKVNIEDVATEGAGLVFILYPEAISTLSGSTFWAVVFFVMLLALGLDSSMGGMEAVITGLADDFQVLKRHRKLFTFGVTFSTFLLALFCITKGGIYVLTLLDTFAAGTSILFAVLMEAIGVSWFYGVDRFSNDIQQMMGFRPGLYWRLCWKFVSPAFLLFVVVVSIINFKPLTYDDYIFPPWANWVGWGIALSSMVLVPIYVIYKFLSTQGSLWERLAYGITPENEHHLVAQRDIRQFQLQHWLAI
Description: as §1

Sodium-dependent serotonin transporter, sequence (P31645 whole entry): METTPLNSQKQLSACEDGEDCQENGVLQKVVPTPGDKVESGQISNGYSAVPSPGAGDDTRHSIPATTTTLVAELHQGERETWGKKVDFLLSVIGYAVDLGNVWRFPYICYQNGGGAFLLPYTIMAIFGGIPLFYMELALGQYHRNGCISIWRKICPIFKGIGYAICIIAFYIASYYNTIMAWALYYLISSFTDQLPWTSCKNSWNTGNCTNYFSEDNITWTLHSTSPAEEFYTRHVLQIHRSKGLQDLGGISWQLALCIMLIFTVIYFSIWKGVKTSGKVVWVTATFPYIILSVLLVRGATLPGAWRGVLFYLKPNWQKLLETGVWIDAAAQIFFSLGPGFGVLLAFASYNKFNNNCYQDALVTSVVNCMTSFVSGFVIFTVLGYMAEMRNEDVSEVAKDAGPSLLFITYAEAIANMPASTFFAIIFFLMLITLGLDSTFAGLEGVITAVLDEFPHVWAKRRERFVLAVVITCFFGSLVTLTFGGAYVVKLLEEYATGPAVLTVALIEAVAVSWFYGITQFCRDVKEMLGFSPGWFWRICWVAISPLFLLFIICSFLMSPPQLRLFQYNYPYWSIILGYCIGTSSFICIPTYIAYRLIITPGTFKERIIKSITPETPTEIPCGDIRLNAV

CCSCCNC(CC(C)C)C1(c2ccc(Cl)c(Cl)c2)CCC1 (configuration not stated) [US10035761, Compound 13f]
Ki [1]: 224 nM | Ki [2]: 119 nM
